The results in this text go back to US10111874B2, “Combination therapies for treatment of cancer” (Araxes Pharma LLC, priority 2014, dated 2018).

SMILES strings stand for the structures.

For the assay, the target named is T1, KRAS G12C 1-169, his-tagged protein, GDP-loaded (Homo sapiens, UniProt P01116, G12C).
T1 construct: KRAS G12C 1-169, his-tagged protein, GDP-loaded
T1 sequence (P01116 1-169 isoform P01116-2 G12C): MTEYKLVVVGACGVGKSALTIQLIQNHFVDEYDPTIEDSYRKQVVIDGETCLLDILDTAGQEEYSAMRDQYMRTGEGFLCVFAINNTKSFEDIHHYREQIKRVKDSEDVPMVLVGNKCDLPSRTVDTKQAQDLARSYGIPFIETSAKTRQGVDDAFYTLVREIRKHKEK
Put plainly: Biochemical assay: covalent binding to KRAS G12C analyzed by mass spectrometry. Note: test concentration or dose not given here. The note with it: determined at 24 hrs.
As for `C=CC(=O)N1CC(N2CCN(C(=O)CCc3cc(Cl)c(Cl)cc3O)CC2)C1` [II-6, 1-(3-(4-(3-(4,5-dichloro-2-hydroxyphenyl)-propanoyl)piperazin-1-yl)azetidin-1-yl)prop-2-en-1-one], the Binding % entry was “+ (+indicates binding activity from 5% to 15%)”. Regarding `C=CC(=O)N1CCC(N2CCN(C(=O)CNc3cc(C)c(Cl)cc3O)CC2)C1` (centres unmarked) [II-7, 1-(3-(4-(2-(4-chloro-2-hydroxy-5-methylphenylamino)-acetyl)piperazin-1-yl)pyrrolidin-1-yl)prop-2-en-1-one], the Binding % entry is “++ (++indicates binding activity greater than 15% and up to 25%)”. Next, `C=CC(=O)N1CC(N2CCN(C(=O)CNc3cc(C#N)c(Cl)cc3Cl)CC2)C1` [II-9, 5-(2-(4-(1-acryloylazetidin-3-yl)piperazin-1-yl)-2-oxoethylamino)-2,4-dichlorobenzonitrile]: “+ (+indicates binding activity from 5% to 15%)”; `C=CC(=O)N1CC(N2CCN(C(=O)CNc3cc(Cl)c(Cl)cc3C(N)=O)CC2)C1` [II-10, 2-(2-(4-(1-acryloylazetidin-3-yl)piperazin-1-yl)-2-oxoethylamino)-4,5-dichlorobenzamide]: “+ (+indicates binding activity from 5% to 15%)”. Regarding `C=CC(=O)N1CCC(N2CCN(C(=O)CNc3cc(I)c(Cl)cc3O)CC2)C1` (centres unmarked) [II-11], the Binding % result is “++++ (++++indicates binding activity greater than 50%)”. As for `C=CC(=O)N1CCC(N2CCN(C(=O)CNc3cc(CC)c(Cl)cc3O)CC2)C1` (centres unmarked) [II-12, 1-(3-(4-(2-(4-chloro-5-ethyl-2-hydroxyphenylamino)-acetyl)piperazin-1-yl)pyrrolidin-1-yl)prop-2-en-1-one], the Binding % result is “+++ (+++indicates binding activity greater than 25% and up to 50%)”. Take `C=CC(=O)N1CC(N2CCN(C(=O)c3cc(-c4cc(Cl)ccc4Cl)c(Cl)cc3OC)CC2)C1` [II-13, 1-(3-(4-(2′,5′,6-trichloro-4-methoxybiphenyl-carbonyl)piperazin-1-yl)azetidin-1-yl)prop-2-en-1-one]: the Binding % result is “++ (++indicates binding activity greater than 15% and up to 25%)”. On to `C=CC(=O)N1CC(N2CCN(C(=O)CNc3cc(Cl)c(F)cc3O)CC2)C1` [II-14, 1-(3-(4-(2-(5-chloro-4-fluoro-2-hydroxyphenyl-amino)acetyl)piperazin-1-yl)azetidin-1-yl)prop-2-en-1-one], for which the Binding % entry is “+++ (+++indicates binding activity greater than 25% and up to 50%)”.

For the molecule `C=CC(=O)N1CC(N2CCC(C(=O)NCc3cc(Cl)c(Cl)cc3O)CC2)C1` [II-17, 1-(1-acryloylazetidin-3-yl)-N-(4,5-dichloro-2-hydroxybenzyl)piperidine-4-carboxamide], the Binding % entry was “++ (++indicates binding activity greater than 15% and up to 25%)”. Next, `C=CC(=O)N1CC(N2CCN(C(=O)CNc3cc(Br)c(Cl)cc3O)CC2)C1` [II-18, 1-(3-(4-(2-(5-bromo-4-chloro-2-hydroxyphenyl-amino)acetyl)piperazin-1-yl)azetidin-1-yl)prop-2-en-1-one]: “++++ (++++indicates binding activity greater than 50%)”; `C=CC(=O)N1CC(N2CCN(C(=O)CNc3cc(Cl)ccc3O)CC2)C1` [II-19, 1-(3-(4-(2-(5-chloro-2-hydroxyphenyl-amino)acetyl)-piperazin-1-yl)azetidin-1-yl)prop-2-en-1-one]: “+++ (+++indicates binding activity greater than 25% and up to 50%)”. Under `CN(C)C/C=C/C(=O)N1CC(N2CCN(C(=O)CNc3cc(Cl)c(Cl)cc3O)CC2)C1` [II-20, (E)-1-(3-(4-((4,5-dichloro-2-hydroxyphenyl)-glycyl)piperazin-1-yl)azetidin-1-yl)-4-(dimethylamino)but-2-en-1-one] stands “++ (++indicates binding activity greater than 15% and up to 25%)”; under `C=CC(=O)N1CC(N2CCN(C(=O)CCn3c(=O)[nH]c4cc(Cl)c(Cl)cc43)CC2)C1` [II-21, 1-(3-(4-(1-acryloylazetidin-3-yl)piperazin-1-yl)-3-oxopropyl)-5,6-dichloro-1H-benzo[d]imidazol-2(3H)-one], “+ (+indicates binding activity from 5% to 15%)”. Under `C=CC(=O)N1CC(N2CCN(C(=O)CNc3cc(Cl)c(Cl)cc3Cl)CC2)C1` [II-22, 1-(3-(4-(2-(2,4,5-trichlorophenyl-amino)acetyl)-piperazin-1-yl)azetidin-1-yl)prop-2-en-1-one] stands “+ (+indicates binding activity from 5% to 15%)”; under `C=CC(=O)N1CC(N2CCN(C(=O)CNc3cc(O)c(Cl)cc3Cl)CC2)C1` [II-23, 1-(3-(4-(2-(2,4-dichloro-5-hydroxyphenyl-amino)acetyl)piperazin-1-yl)azetidin-1-yl)prop-2-en-1-one], “+ (+indicates binding activity from 5% to 15%)”; under `C=CC(=O)N1CC(N2CCN(C(=O)Cc3cccc4ccccc34)CC2)C1` [II-24, 1-(3-(4-(2-(naphthalen-1-yl)acetyl)piperazin-1-yl)azetidin-1-yl)prop-2-en-1-one], “+ (+indicates binding activity from 5% to 15%)”.

As to `C=CC(=O)N1CC(N2CCN(C(=O)Cc3c[nH]c4ccccc34)CC2)C1` [II-25, 1-(3-(4-(2-(1H-indol-3-yl)acetyl)piperazin-1-yl)azetidin-1-yl)prop-2-en-1-one], the Binding % result was “+ (+indicates binding activity from 5% to 15%)”. With `C=CC(=O)N1CC(N2CCN(C(=O)CNc3cc(Cl)c(Cl)cc3C(F)(F)F)CC2)C1` [II-26, 1-(3-(4-(2-(4,5-dichloro-2-(trifluoromethyl)-phenylamino)acetyl)-piperazin-1-yl)azetidin-1-yl)prop-2-en-1-one], the Binding % entry was “+ (+indicates binding activity from 5% to 15%)”. Under `C=CC(=O)N1CC(N2CCN(C(=O)CNc3cc(O)c(Cl)c(Cl)c3)CC2)C1` [II-27, 1-(3-(4-(2-(3,4-dichloro-5-hydroxyphenyl-amino)acetyl)piperazin-1-yl)azetidin-1-yl)prop-2-en-1-one] stands “++ (++indicates binding activity greater than 15% and up to 25%)”; under `C=CC(=O)N1CC(N2CCN(C(=O)CNc3cc(Cl)c(Br)cc3O)CC2)C1` [II-28, 1-(3-(4-(2-(4-bromo-5-chloro-2-hydroxyphenylamino)-cetyl)piperazin-1-yl)azetidin-1-yl)prop-2-en-1-one], “+++ (+++indicates binding activity greater than 25% and up to 50%)”.

As to `C=CC(=O)N1CC(N2CCN(C(=O)Cn3ccc4ccccc43)CC2)C1` [II-29, 1-(3-(4-(2-(1H-indol-1-yl)acetyl)piperazin-1-yl)azetidin-1-yl)prop-2-en-1-one], the Binding % entry is given as “+ (+indicates binding activity from 5% to 15%)”. For `C=CC(=O)N1CC(N2CCN(C(=O)Cn3ccc4cc(Cl)c(Cl)cc43)CC2)C1` [II-30, 1-(3-(4-(2-(5,6-dichloro-1H-indol-1-yl)acetyl)piperazin-1-yl)azetidin-1-yl)prop-2-en-1-one], the Binding % result is listed as “+ (+indicates binding activity from 5% to 15%)”. Consider `C=CC(=O)N1CC(N2CCN(C(=O)C(C)Nc3cc(Cl)c(Cl)cc3O)CC2)C1` (centres unmarked) [II-31, 1-(3-(4-(2-(4,5-dichloro-2-hydroxyphenylamino)-propanoyl)-piperazin-1-yl)azetidin-1-yl)prop-2-en-1-one], for which the Binding % result is on record as “++++ (++++indicates binding activity greater than 50%)”.
